This is an account of results in PMC6683117 (2019).

This assay concerns KRAS G12D mutated nucleotide (GAT), biotinylated hairpin (DNA, hairpin) TACATCTGATGGCGTATTAAGTTTTCTTAATACGCCATCAGATGTA
Briefly: SPR (Biacore X100), kinetic kd/ka. Conditions: 150 mM NaCl; HBS-EP (10 mM HEPES, 3 mM EDTA, 0.005% P20), 0.1% DMSO, pH 7.4, 25 °C; printed ka, kd give 3.04 × 10^-8.

Compound `CN(C)CCCNC(=O)CCNC(=O)c1cc(NC(=O)c2nc(NC(=O)c3nc(NC(=O)CCNC(=O)c4cc(NC(=O)c5nc(NC(=O)CCCNC(=O)c6cc(NC(=O)c7cc(NC(=O)c8cc(NC(=O)CCNC(=O)c9cc(NC(=O)c%10nc(NC(=O)CCNC(=O)CCCC[C@@H]%11SC[C@@H]%12NC(=O)NC%12%11)cn%10C)cn9C)cn8C)cn7C)cn6C)cn5C)cn4C)cn3C)cn2C)cn1C` (stereo partly shown) returned a KD of 304 nM.
